Experimental data as given in patent publication US10457672B2, “γ-diketones as Wnt/β-catenin signaling pathway activators” (Samumed, LLC, priority 2013, dated 2019).

system: Wnt/β-catenin signaling pathway (Wnt-responsive SP5 promoter luciferase reporter in SW480 cells); assay: Wnt reporter (SP5 promoter-firefly luciferase) activation assay in SW480 cells; type: cell-based; conditions: Homo sapiens; SW480 colon cancer cells with SP5 promoter luciferase reporter; 24 h after compound addition; normalized to DMSO; concentration at half maximal activation
Method: Compounds that enhance the Wnt activity, or Activators, were assayed as follows. Reporter cell lines were generated by stably transducing cells of colon cancer cell lines (with a lentiviral construct that included a Wnt-responsive promoter driving expression of the firefly luciferase gene).
Lentiviral constructs were made in which the SP5 promoter, a promoter having eight TCF/LEF binding sites derived from the SP5 promoter, was linked upstream of the firefly luciferase gene. The lentiviral constructs also included a hygromycin resistance gene as a selectable marker. The SP5 promoter construct was used to transduce SW480 cells, a colon cancer cell line having a mutated APC gene that generates a truncated APC protein, leading to de-regulated accumulation of β-catenin.
Cultured SW480 cells bearing a reporter construct were distributed at approximately 10,000 cells per well into 384- or 96-well multiwell plates. Compounds from a small molecule compound library were then added to the wells in half-log dilutions using a maximum concentration of three or ten micromolar. A series of control wells for each cell type received only buffer and compound solvent DMSO. Twenty-four hours after the addition of compound, reporter activity for luciferase was assayed, for example, by addition of the BrightGlo luminescence reagent (Promega) and the Victor3 plate reader (Perkin Elmer). Readings were normalized to DMSO only treated cells, and any activities above DMSO were considered activation. Compounds were considered activators if reporter activities were 2× fold or greater than DMSO. EC50 is the concentration at half maximal activation.

First: Cc1ccccc1C(=O)CCC(=O)c1ccccn1 [Compound 544, 1-(Pyridin-2-yl)-4-(o-tolyl)butane-1,4-dione]
Second: COc1ccccc1C(=O)CCC(=O)c1ccccn1 [Compound 547, 1-(2-Methoxyphenyl)-4-(pyridin-2-yl)butane-1,4-dione]
The EC50 of the first is lower: 900 nM for the first, over 10000 nM for the second. The first is the more potent here.

Compared with O=C(CCC(=O)c1ccccn1)c1ccc2[nH]ncc2c1 [Compound 507, 1-(1H-Indazol-5-yl)-4-(pyridin-2-yl)butane-1,4-dione], O=C(CCC(=O)c1ccco1)c1ccc2[nH]ncc2c1 [Compound 515, 1-(Furan-2-yl)-4-(1H-indazol-5-yl)butane-1,4-dione] is 3.5-fold higher in EC50: 36 nM for the first, 127 nM for the second. The first is the more potent here.

Going from O=C(CCC(=O)c1ccco1)c1ccccn1 [Compound 554, 1-(Furan-2-yl)-4-(pyridin-2-yl)butane-1,4-dione] to O=C(CCC(=O)c1ccccc1C(F)(F)F)c1ccccn1 [Compound 541, 1-(Pyridin-2-yl)-4-(2-(trifluoromethyl)phenyl)butane-1,4-dione], the EC50 falls from over 10000 nM to 2810 nM. The second is the more potent here.

Compared with O=C(CCC(=O)c1ncccn1)c1ccc2c(c1)OCCO2 [Compound 339, 1-(2,3-Dihydrobenzo[b][1,4]dioxin-6-yl)-4-(pyrimidin-2-yl)butane-1,4-dione], O=C(CCC(=O)c1cccnn1)c1ccc2c(c1)OCCO2 [Compound 341, 1-(2,3-Dihydrobenzo[b][1,4]dioxin-6-yl)-4-(pyridazin-3-yl)butane-1,4-dione] is 11-fold higher in EC50: 9 nM for the first, 95 nM for the second.

Compared with O=C(CCC(=O)c1ccccc1C(F)(F)F)c1ccc2c(c1)CCCO2 [Compound 68, 1-(Chroman-6-yl)-4-(2-(trifluoromethyl)phenyl)butane-1,4-dione], O=C(CCC(=O)c1ccccc1F)c1ccc2c(c1)CCCO2 [Compound 71, 1-(Chroman-6-yl)-4-(2-fluorophenyl)butane-1,4-dione] is 2.4-fold lower in EC50: 6 nM for the first, 2.5 nM for the second. The second is the more potent here.

First: COc1ccccc1C(=O)CCC(=O)c1c[nH]c2ccccc12 [Compound 319, 1-(1H-Indol-3-yl)-4-(2-methoxyphenyl)butane-1,4-dione]
Second: Cc1ccccc1C(=O)CCC(=O)c1c[nH]c2ccccc12 [Compound 518, 1-(1H-Indol-3-yl)-4-(o-tolyl)butane-1,4-dione]
The EC50 of the first is 2.3-fold lower: 279 nM for the first, 646 nM for the second.

COc1ccc(C(=O)CCC(=O)c2ncccn2)cc1OC [Compound 431, 1-(3,4-Dimethoxyphenyl)-4-(pyrimidin-2-yl)butane-1,4-dione] and COc1ccc(C(=O)CCC(=O)c2ccncc2)cc1OC [Compound 209, 1-(3,4-Dimethoxyphenyl)-4-(pyridin-4-yl)butane-1,4-dione] cannot be ordered by EC50: over 10000 nM for the first, over 10000 nM for the second.

First: O=C(CCC(=O)c1cc2c(c(O)c1O)OCCO2)c1ccccc1 [Compound 4, 1-(7,8-dihydroxy-2,3-dihydrobenzo[b][1,4]dioxin-6-yl)-4-phenylbutane-1,4-dione]
Second: COc1ccccc1C(=O)CCC(=O)c1ccc2c(c1)OCCO2 [Compound 12, 1-(2,3-Dihydrobenzo[b][1,4]dioxin-6-yl)-4-(2-methoxyphenyl)butane-1,4-dione]
The EC50 of the first is higher: over 10000 nM for the first, 5 nM for the second.

O=C(CCC(=O)c1cccc2c1OCCO2)c1ccc(C(F)(F)F)cc1 [Compound 238, 1-(2,3-Dihydrobenzo[b][1,4]dioxin-5-yl)-4-(4-(trifluoromethyl)phenyl)butane-1,4-dione] and O=C(CCC(=O)c1c[nH]c2ccccc12)c1ccc(C(F)(F)F)cc1 [Compound 316, 1-(1H-Indol-3-yl)-4-(4-(trifluoromethyl)phenyl)butane-1,4-dione] cannot be ordered by EC50: over 10000 nM for the first, over 10000 nM for the second.

First: O=C(CCC(=O)c1c[nH]c2ccccc12)c1ccccc1F [Compound 317, 1-(2-Fluorophenyl)-4-(1H-indol-3-yl)butane-1,4-dione]
Second: O=C(CCC(=O)c1n[nH]c2ccccc12)c1ccccc1F [Compound 329, 1-(2-Fluorophenyl)-4-(1H-indazol-3-yl)butane-1,4-dione]
The EC50 of the first is higher: over 10000 nM for the first, 89 nM for the second.

First: COc1cccc(C(=O)CCC(=O)c2ccc3[nH]cnc3c2)c1 [Compound 269, 1-(1H-Benzo[d]imidazol-5-yl)-4-(3-methoxyphenyl)butane-1,4-dione]
Second: O=C(CCC(=O)c1ccc2[nH]cnc2c1)c1ccccc1 [Compound 274, 1-(1H-Benzo[d]imidazol-5-yl)-4-phenylbutane-1,4-dione]
The EC50 of the first is higher: over 10000 nM for the first, 6800 nM for the second. The second is the more potent here.

Compared with Cc1ccccc1C(=O)CCC(=O)c1n[nH]c2ccccc12 [Compound 528, 1-(1H-Indazol-3-yl)-4-(o-tolyl)butane-1,4-dione], Cc1ccccc1C(=O)CCC(=O)c1cccs1 [Compound 560, 1-(Thiophen-2-yl)-4-(o-tolyl)butane-1,4-dione] is 2.7-fold lower in EC50: 148 nM for the first, 55 nM for the second. The second is the more potent here.

Going from O=C(CCC(=O)c1ccccc1F)c1ccc2occc2c1 [Compound 278, 1-(Benzofuran-5-yl)-4-(2-fluorophenyl)butane-1,4-dione] to COc1ccccc1C(=O)CCC(=O)c1ccc2occc2c1 [Compound 281, 1-(Benzofuran-5-yl)-4-(2-methoxyphenyl)butane-1,4-dione], the EC50 rises from 18 nM to 61 nM (3.4-fold).

First: O=C(CCC(=O)c1ccccc1F)c1ccc2[nH]cnc2c1 [Compound 265, 1-(1H-Benzo[d]imidazol-5-yl)-4-(2-fluorophenyl)butane-1,4-dione]
Second: O=C(CCC(=O)c1ccccc1C(F)(F)F)c1ccc2ocnc2c1 [Compound 288, 1-(Benzo[d]oxazol-5-yl)-4-(2-(trifluoromethyl)phenyl)butane-1,4-dione]
The EC50 of the first is lower: 201 nM for the first, over 10000 nM for the second.

Compared with COc1ccc(C(=O)CCC(=O)c2ccc3c(c2)CCCO3)cc1 [Compound 76, 1-(Chroman-6-yl)-4-(4-methoxyphenyl)butane-1,4-dione], O=C(CCC(=O)c1ccc2c(c1)CCCO2)c1ccccc1 [Compound 80, 1-(Chroman-6-yl)-4-phenylbutane-1,4-dione] is lower in EC50: over 10000 nM for the first, 10 nM for the second. The second is the more potent here.

First: Cc1ccc(C(=O)CCC(=O)c2ccc3[nH]ccc3c2)cc1 [Compound 447, 1-(1H-Indol-5-yl)-4-(p-tolyl)butane-1,4-dione]
Second: O=C(CCC(=O)c1ccc2[nH]ccc2c1)c1ccccc1 [Compound 261, 1-(1H-indol-5-yl)-4-phenylbutane-1,4-dione]
The EC50 of the first is higher: over 10000 nM for the first, 42 nM for the second.

O=C(CCC(=O)c1ccc2ocnc2c1)c1cccc(F)c1 [Compound 292, 1-(Benzo[d]oxazol-5-yl)-4-(3-fluorophenyl)butane-1,4-dione] and Cc1cccc(C(=O)CCC(=O)c2ccc3occc3c2)c1 [Compound 456, 1-(Benzofuran-5-yl)-4-(m-tolyl)butane-1,4-dione] are within 1.5-fold of each other in EC50: 595 nM for the first, 673 nM for the second.

Cc1ccc(C(=O)CCC(=O)c2ccc3c(c2)OCCO3)cc1 [Compound 344, 1-(2,3-Dihydrobenzo[b][1,4]dioxin-6-yl)-4-(p-tolyl)butane-1,4-dione] and O=C(CCC(=O)c1ccc2c(c1)OCCO2)c1cccnc1 [Compound 14, 1-(2,3-dihydrobenzo[b][1,4]dioxin-6-yl)-4-(pyridin-3-yl)butane-1,4-dione] are within 1.5-fold of each other in EC50: 307 nM for the first, 306 nM for the second.

Compared with Cc1ccccc1C(=O)CCC(=O)c1ccc2c(c1)OCO2 [Compound 368, 1-(Benzo[d][1,3]dioxol-5-yl)-4-(o-tolyl)butane-1,4-dione], O=C(CCC(=O)c1ccccc1C(F)(F)F)c1ccc2c(c1)OCO2 [Compound 210, 1-(Benzo[d][1,3]dioxol-5-yl)-4-(2-(trifluoromethyl)phenyl)butane-1,4-dione] is 8-fold lower in EC50: 16 nM for the first, 2 nM for the second.

Going from O=C(CCC(=O)c1ccccc1C(F)(F)F)c1ccc2occc2c1 [Compound 275, 1-(Benzofuran-5-yl)-4-(2-(trifluoromethyl)phenyl)butane-1,4-dione] to O=C(CCC(=O)c1ccc2occc2c1)c1ccccc1 [Compound 287, 1-(Benzofuran-5-yl)-4-phenylbutane-1,4-dione], the EC50 rises from 9 nM to 87 nM (9.7-fold).

Compared with O=C(CCC(=O)c1ccco1)c1ccc2c(c1)CCCO2 [Compound 365, 1-(Chroman-6-yl)-4-(furan-2-yl)butane-1,4-dione], O=C(CCC(=O)c1ccc2c(c1)CCCO2)c1cccc(C(F)(F)F)c1 [Compound 69, 1-(Chroman-6-yl)-4-(3-(trifluoromethyl)phenyl)butane-1,4-dione] is higher in EC50: 33 nM for the first, over 10000 nM for the second.

First: COc1cccc(C(=O)CCC(=O)c2ccc3c(c2)OCO3)c1 [Compound 217, 1-(Benzo[d][1,3]dioxol-5-yl)-4-(3-methoxyphenyl)butane-1,4-dione]
Second: O=C(CCC(=O)c1ccc2c(c1)OCO2)c1ccccc1 [Compound 222, 1-(Benzo[d][1,3]dioxol-5-yl)-4-phenylbutane-1,4-dione]
The EC50 of the first is 110-fold higher: 343 nM for the first, 3 nM for the second. The second is the more potent here.

First: O=C(CCC(=O)c1ccccc1C(F)(F)F)c1cccs1 [Compound 559, 1-(Thiophen-2-yl)-4-(2-(trifluoromethyl)phenyl)butane-1,4-dione]
Second: O=C(CCC(=O)c1ccc2sccc2c1)c1ccccc1 [Compound 313, 1-(Benzo[b]thiophen-5-yl)-4-phenylbutane-1,4-dione]
The EC50 of the first is 7.7-fold higher: 340 nM for the first, 44 nM for the second. The second is the more potent here.

O=C(CCC(=O)c1ncccn1)c1ccccc1 [Compound 718, 1-Phenyl-4-(pyrimidin-2-yl)butane-1,4-dione] and O=C(CCC(=O)c1ccc2c(c1)OC(F)(F)O2)c1ccccc1 [Compound 235, 1-(2,2-Difluorobenzo[d][1,3]dioxol-5-yl)-4-phenylbutane-1,4-dione] are within 1.5-fold of each other in EC50: 681 nM for the first, 494 nM for the second.
